Data taken from patent US11845809B2, “Maleate of SCY-635 and uses thereof in medicine” (priority 2018, dated 2023).
In brackets after ≈: the same amount, converted by molar mass. Where two headings read alike, the source gives them in different places.

Assays:
[1] = format: physicochemical; conditions: for Final pH of supernatant: water, RT
Source text: (§1) Crystalline maleate was recommended as a leading salt and further evaluated by kinetic solubility and physicochemical stability.

[2] = format: physicochemical; conditions: for Final pH of supernatant: FaSSIF, RT
Source text: as §1

physchem = format: physicochemical; conditions: fassif, thermodynamic from solid, Solubility (S)
cytochrome P450 1A2 = conditions: cited from earlier work
cytochrome P450 2B6 = conditions: cited from earlier work
P-glycoprotein = P-glycoprotein (Homo sapiens, UniProt P08183); conditions: cited from earlier work
Chain of P-glycoprotein (P08183 whole entry): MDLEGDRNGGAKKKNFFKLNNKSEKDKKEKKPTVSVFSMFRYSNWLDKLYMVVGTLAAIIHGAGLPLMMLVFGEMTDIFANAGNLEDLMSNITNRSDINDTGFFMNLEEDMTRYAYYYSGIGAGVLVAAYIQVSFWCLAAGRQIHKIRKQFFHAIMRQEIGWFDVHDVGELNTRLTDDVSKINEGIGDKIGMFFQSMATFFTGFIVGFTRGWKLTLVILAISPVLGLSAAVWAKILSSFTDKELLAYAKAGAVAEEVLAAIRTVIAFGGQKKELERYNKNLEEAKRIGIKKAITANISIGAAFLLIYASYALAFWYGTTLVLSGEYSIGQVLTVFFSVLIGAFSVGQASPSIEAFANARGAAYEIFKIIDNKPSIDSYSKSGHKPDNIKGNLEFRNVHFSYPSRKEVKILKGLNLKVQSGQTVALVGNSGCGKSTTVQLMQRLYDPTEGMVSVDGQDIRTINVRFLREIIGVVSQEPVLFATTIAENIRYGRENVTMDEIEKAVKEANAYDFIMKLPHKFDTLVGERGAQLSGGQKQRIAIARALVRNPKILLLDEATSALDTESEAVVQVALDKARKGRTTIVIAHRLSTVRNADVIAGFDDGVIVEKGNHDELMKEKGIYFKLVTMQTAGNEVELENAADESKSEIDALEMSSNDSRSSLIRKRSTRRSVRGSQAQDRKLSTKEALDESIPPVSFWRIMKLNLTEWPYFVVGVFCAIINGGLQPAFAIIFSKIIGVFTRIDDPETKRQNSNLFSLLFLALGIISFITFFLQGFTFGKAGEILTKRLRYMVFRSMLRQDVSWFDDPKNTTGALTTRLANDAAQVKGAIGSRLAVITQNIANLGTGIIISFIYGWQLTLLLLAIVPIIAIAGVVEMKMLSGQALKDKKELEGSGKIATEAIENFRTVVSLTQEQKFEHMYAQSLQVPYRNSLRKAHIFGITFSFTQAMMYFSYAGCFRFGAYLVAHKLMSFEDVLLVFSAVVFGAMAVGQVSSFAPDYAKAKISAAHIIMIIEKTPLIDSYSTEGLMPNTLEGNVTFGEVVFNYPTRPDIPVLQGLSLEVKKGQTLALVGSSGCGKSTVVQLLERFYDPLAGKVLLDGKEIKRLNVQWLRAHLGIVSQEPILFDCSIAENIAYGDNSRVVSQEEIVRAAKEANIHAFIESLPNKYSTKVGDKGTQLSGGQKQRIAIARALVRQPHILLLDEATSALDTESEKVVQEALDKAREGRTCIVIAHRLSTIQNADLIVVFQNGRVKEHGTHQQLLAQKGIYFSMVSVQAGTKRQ

stimulated Jurkat cells = conditions: cited from earlier work
[3] = test system: stimulated human peripheral blood mononuclear cells; conditions: cited from earlier work
hepatitis C virus (HCV) [4] = conditions: cited from earlier work
cyclophilin A = cyclophilin A (Homo sapiens, UniProt P62937); conditions: cited from earlier work
Chain of cyclophilin A (P62937 whole entry, species assumed): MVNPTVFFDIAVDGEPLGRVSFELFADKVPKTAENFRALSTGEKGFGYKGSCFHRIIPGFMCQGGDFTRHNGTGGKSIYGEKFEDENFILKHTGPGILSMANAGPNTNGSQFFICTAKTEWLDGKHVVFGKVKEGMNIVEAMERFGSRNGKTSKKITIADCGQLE

cytochrome P450 3A4 = conditions: cited from earlier work
hepatitis C virus (HCV) [5] = conditions: cited from earlier work; remark: listed apart in the source
calcineurin = conditions: at concentrations up to 2 μM; cited from earlier work
[6] = in vivo, cited from earlier work
[7] = One-week physicochemical stability evaluation (HPLC purity); conditions: for Purity (area%) / Purity of initial (%): open, one week
Procedure: Physicochemical stability of crystalline maleate was evaluated under 25° C./60% RH-open and 40° C./75% RH-open for one week.

## C/C=C/C[C@@H](C)[C@@H](O)[C@H]1C(=O)N[C@@H](CC)C(=O)N(C)[C@H](SCCN(C)C)C(=O)N(C)[C@@H](CC(C)(C)O)C(=O)N[C@@H](C(C)C)C(=O)N(C)[C@@H](CC(C)C)C(=O)N[C@@H](C)C(=O)N[C@H](C)C(=O)N(C)[C@@H](CC(C)C)C(=O)N(C)[C@@H](CC(C)C)C(=O)N(C)[C@@H](C(C)C)C(=O)N1C [Freebase Type A]
[1]; 2 h
  Solubility (S): 100 µg/mL (≈ 75.7 µM)
[1]; 4 h
  Solubility (S): 100 µg/mL (≈ 75.7 µM)
[1]; 6 h
  Solubility (S): 300 µg/mL (≈ 227 µM)
[1]; 2 hrs
  Final pH of supernatant: 6.7
[1]; 4 hrs
  Final pH of supernatant: 6.5
[1]; 6 hrs
  Final pH of supernatant: 6.6
[2]; 2 hrs
  Final pH of supernatant: 6.8
[2]; 4 hrs
  Final pH of supernatant: 6.8
[2]; 6 hrs
  Final pH of supernatant: 7.0
physchem
  solubility at 2 h: 3700 µg/mL (≈ 2800 µM)
  solubility at 4 h: 4700 µg/mL (≈ 3560 µM)
  solubility at 6 h: 5600 µg/mL (≈ 4240 µM)

## C/C=C/C[C@@H](C)[C@@H](O)[C@H]1C(=O)N[C@@H](CC)C(=O)N(C)[C@H](SCCN(C)C)C(=O)N(C)[C@@H](CC(C)(C)O)C(=O)N[C@@H](C(C)C)C(=O)N(C)[C@@H](CC(C)C)C(=O)N[C@@H](C)C(=O)N[C@H](C)C(=O)N(C)[C@@H](CC(C)C)C(=O)N(C)[C@@H](CC(C)C)C(=O)N(C)[C@@H](C(C)C)C(=O)N1C [Freebase amorphous]
[1]; 2 hrs
  Final pH of supernatant: 4.9
[1]; 4 hrs
  Final pH of supernatant: 4.7
[1]; 6 hrs
  Final pH of supernatant: 6.2
[2]; 2 hrs
  Final pH of supernatant: 6.9
[2]; 4 hrs
  Final pH of supernatant: 6.9
[2]; 6 hrs
  Final pH of supernatant: 7.0

## C/C=C/C[C@@H](C)[C@@H](O)[C@H]1C(=O)N[C@@H](CC)C(=O)N(C)[C@H](SCCN(C)C)C(=O)N(C)[C@@H](CC(C)(C)O)C(=O)N[C@@H](C(C)C)C(=O)N(C)[C@@H](CC(C)C)C(=O)N[C@@H](C)C(=O)N[C@H](C)C(=O)N(C)[C@@H](CC(C)C)C(=O)N(C)[C@@H](CC(C)C)C(=O)N(C)[C@@H](C(C)C)C(=O)N1C [SCY-635, (3S,6S,9S,12R,15S,18S,21S,24S,27R,30S,33S)-27-((2-(dimethylamino)ethyl)thio)-30-ethyl-33-((1R,2R,E)-1-hydroxy-2-methylhex-4-en-1-yl)-24-(2-hydroxy-2-methylpropyl)-6,9,18-triisobutyl-3,21-diisopropyl-1,4,7,10,12,15,19,25,28-nonamethyl-1,4,7,10,13,16,19,22,25,28,31-undecaazacyclotritriacontan-2,5,8,11,14,17,20,23,26,29,32-undecaone]
Cytochrome P450 1A2
  Induction of cytochrome P450 1A2: did not induce
Cytochrome P450 2B6
  Induction of cytochrome P450 2B6: did not induce
P-glycoprotein
  P-glycoprotein inhibition: weak inhibitor
  P-glycoprotein substrate: poor substrate
Stimulated Jurkat cells
  Inhibition of interleukin-2 secretion compared with cyclosporine: weaker inhibitor
[3]
  Inhibition of interleukin-2 secretion compared with cyclosporine: weaker inhibitor
Hepatitis C virus (HCV) [4]; with alpha interferon 2b
  Antiviral activity in combination: synergistic antiviral activity
Hepatitis C virus (HCV) [4]; with ribavirin
  Antiviral activity in combination: additive antiviral activity
Cyclophilin A
  Inhibition of peptidyl prolyl isomerase activity of cyclophilin A: at nanomolar concentrations
Cytochrome P450 3A4
  Induction of cytochrome P450 3A4: did not induce
Hepatitis C virus (HCV) [5]
  Suppression of HCV replication in vitro: potent suppression
calcineurin
  Inhibition of calcineurin phosphatase activity: no detectable inhibition
[6]; po
  Blood and liver concentrations of parent drug versus replicon 50% effective dose: exceeded the 50% effective dose
[6]
  Oral bioavailability: orally bioavailable

## Maleate
[1]
  Solubility compared with amorphous and crystalline freebase: significant solubility improvement
[1]; 6 hrs
  Final pH of supernatant: 4.9
[2]
  Solubility compared with amorphous and crystalline freebase: significant solubility improvement
[2]; 6 hrs
  Final pH of supernatant: 6.0
[7]; 25° C./60% RH
  Purity (area%): 100.0 area%
  Purity of initial (%): 100.0%
[7]; 40° C./75% RH
  Purity (area%): 100.0 area%
  Purity of initial (%): 100.0%
[7]; both 25° C./60% RH and 40° C./75% RH, at least one week
  Chemical stability: good chemical stability
